Where two headings read alike, the source gives them in different places.

Series [1] can be described thus: Stability (in water and acidic solutions). The conditions noted are these: stated in words, Example 1.
The nature of the next series: Bioavailability. The note with it: stated in words, Example 1.
For series [2] the following is noted: daily doses of about 20 g of creatine for 5-7 days; cited from earlier work.
Another series deals with T1, ATP citrate lyase (Homo sapiens, UniProt P53396).
T1 sequence (P53396 1-1101): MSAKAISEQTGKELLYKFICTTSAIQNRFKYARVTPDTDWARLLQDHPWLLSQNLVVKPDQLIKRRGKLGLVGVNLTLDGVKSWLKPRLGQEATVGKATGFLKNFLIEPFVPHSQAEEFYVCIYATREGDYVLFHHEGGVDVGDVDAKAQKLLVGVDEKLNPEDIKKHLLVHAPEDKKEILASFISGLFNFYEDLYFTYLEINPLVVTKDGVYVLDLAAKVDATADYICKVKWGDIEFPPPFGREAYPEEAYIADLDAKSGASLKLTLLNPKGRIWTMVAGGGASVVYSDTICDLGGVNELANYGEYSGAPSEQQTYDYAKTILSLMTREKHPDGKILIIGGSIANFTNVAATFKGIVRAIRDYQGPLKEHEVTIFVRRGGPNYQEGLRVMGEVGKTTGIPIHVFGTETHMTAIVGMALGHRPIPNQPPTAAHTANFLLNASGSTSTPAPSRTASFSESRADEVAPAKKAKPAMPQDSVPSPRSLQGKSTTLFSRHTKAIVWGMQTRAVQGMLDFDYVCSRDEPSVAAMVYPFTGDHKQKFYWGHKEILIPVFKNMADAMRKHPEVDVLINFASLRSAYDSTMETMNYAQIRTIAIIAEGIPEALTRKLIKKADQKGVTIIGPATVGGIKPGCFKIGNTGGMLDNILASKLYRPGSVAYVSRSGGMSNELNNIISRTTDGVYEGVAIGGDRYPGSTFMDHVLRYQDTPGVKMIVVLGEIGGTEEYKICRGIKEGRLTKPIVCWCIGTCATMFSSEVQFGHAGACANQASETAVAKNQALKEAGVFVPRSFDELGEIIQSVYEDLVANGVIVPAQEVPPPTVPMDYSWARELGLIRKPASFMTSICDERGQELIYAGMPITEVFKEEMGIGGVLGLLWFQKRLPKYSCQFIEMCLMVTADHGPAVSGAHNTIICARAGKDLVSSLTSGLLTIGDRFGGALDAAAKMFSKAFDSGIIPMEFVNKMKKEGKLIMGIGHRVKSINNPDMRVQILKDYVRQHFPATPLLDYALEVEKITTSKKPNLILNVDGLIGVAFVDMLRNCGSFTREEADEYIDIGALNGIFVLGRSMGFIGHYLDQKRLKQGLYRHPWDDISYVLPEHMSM
The conditions noted are these: cited from earlier work.

For series [3] the following is noted: in vivo.

For `CN(CC(=O)O)C(=N)N.CN(CC(=O)O)C(=N)N.O.O=C(O)CC(O)(C(=O)O)C(O)C(=O)[O-].[K+]` (stereo not shown) [Dicreatine (mono) potassium hydroxycitrate monohydrate], in series [1], the stability result was “stable”. In addition, the bioavailability entry in the series “Bioavailability” was “bioavailable”.

Take `CN(CC(=O)O)C(=N)N` [creatine]: the “increase of total creatine content in the muscle” value in series [2] is 10-25%.

As for Tricreatine hydroxycitrate monohydrate, the stability entry in series [1] is recorded as “stable”. In addition, in “Bioavailability”, the bioavailability entry is on record as “bioavailable”.

`O=C(O)CC(O)(C(=O)O)C(O)C(=O)O` (stereo not shown) [Hydroxycitric acid]: the “activity of ATP citrate lyase” value on ATP citrate lyase is given as “inhibit”.

For the compound `CN(CC(=O)O)C(=N)N.O.O=C([O-])CC(O)(C(=O)[O-])C(O)C(=O)O.[K+].[K+]` (stereo not shown) [(Mono)-creatine dipotassium hydroxycitrate monohydrate], the bioavailability entry in series [3] is “bioavailable”.

Source of the values: patent US7772428B2, “Creatine hydroxycitric acids salts and methods for their production and use in individuals” (Northern Innovations and Formulations, priority 2005, dated 2010).
